Values of other authors, collected in PMC10364322, “Evaluation of chronic drug-induced electrophysiological and cytotoxic effects using human-induced pluripotent stem cell-derived cardiomyocytes (hiPSC-CMs)” (Frontiers in Pharmacology, 2023).

Columns and labels:
[1] = system: patients; design: method as in Wenningmann et al., 2019; details: doses above 700 mg/m^2; ref Wenningmann et al., 2019; cited from earlier work
[2] = system: cynomolgus monkeys; design: method as in Gill et al., 2017; details: ref Gill et al., 2017; cited from earlier work

## COc1cccc2c1C(=O)c1c(O)c3c(c(O)c1C2=O)C[C@@](O)(C(=O)CO)C[C@@H]3O[C@H]1C[C@H](N)[C@H](O)[C@H](C)O1 [Doxorubicin]
[1]
  congestive heart failure, share of patients: up to 48%

## COc1nc(N)nc2c1ncn2[C@@H]1O[C@H](COP(=O)(N[C@@H](C)C(=O)OCC(C)(C)C)Oc2cccc3ccccc23)[C@@H](O)[C@@]1(C)O (some centres unmarked) [BMS-986094]
[2]
  estimated dose that caused cardiotoxicity: 3 µM
